In patent US10098870B2 (JENKEM TECHNOLOGY CO., LTD. (BEIJING), priority 2013, dated 2018):
Several values for one entry are separate records, joined by “and”; a condition that tells them apart may be missing. Equal entries are not always repeated. Where two headings read alike, the source gives them in different places.

What was measured:
[1] = system: H460 human non-small cell lung cancer cells; conditions: for T/C (%) RTV / T/C (%) TW: vs physiological saline; for RTV / Tumor weight: 29th day, Mean ± SEM; for Tumor volume: mean ± SE
Protocol: The tumor cells were passaged with digestion by trypsin-EDTA twice a week. The cells in the exponential growth phase were collected, counted, and used for inoculation.
5.0×10^6 of H460 tumor cells were suspended in 0.1 ml of PBS, inoculated to each nude mouse at the right shoulder, and there were totally 34 mice inoculated. 8 days later the mean tumor volume was desired to reach about 143 mm^3, the mice with a smaller or larger tumor were removed and the remaining 24 mice were divided into groups randomly according to tumor volume and administrated.

[2] = Body weight, survival and tolerance of mice bearing A549 (Example 10); conditions: mean ± SE;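 further: nude mice, each given 1.0×10^7 A549 tumor cells in the right shoulder region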
Protocol: (§1) 1.0×10^7 of A549 tumor cells were suspended in 0.1 ml of PBS, inoculated to each nude mouse at the right shoulder, and there were totally 36 mice inoculated.

[3] = Body weight, survival and tolerance of mice bearing Hep3B (Example 7); assay type: in vivo, mouse; conditions: mean ± SE
[4] = system: Calu-6 human lung cancer cell; test: Anti-tumor effect on xenograft tumor model of Calu-6 in nude mice (Example 9); conditions: for T/C (%) RTV / T/C (%) TW: vs physiological saline; for RTV / Tumor weight: 42nd day, Mean ± SEM; for Tumor volume: mean ± SE;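 on all read-outs here: each nude mouse received 5.0×10^6 Calu-6 cells implanted at the right shoulder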
Protocol: Calu-6 cells were cultured with a monolayer in vitro in MEM medium supplied with heat-inactivated fetal bovine serum with a volume ratio of 10%, and an incubator at 37° C. with the air containing CO2 with a proportion of 5%. The tumor cells were passaged with digestion by trypsin-EDTA twice a week. The cells in the exponential growth phase were collected, counted, and used for inoculation.
(§2) 5.0×10^6 of Calu-6 tumor cells were suspended in 0.1 ml of PBS, inoculated to each nude mouse at the right shoulder, and there were totally 34 mice inoculated.

[5] = system: A549 human non-small cell lung cancer cells; test: Anti-tumor effect on xenograft tumor model of A549 in nude mice (Example 10); conditions: for T/C (%) RTV / T/C (%) TW: vs physiological saline; for RTV / Tumor weight: 52nd day, Mean ± SEM; for Tumor volume: mean ± SE;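 on all read-outs here: nude mice bearing A549 xenografts established by inoculating 1.0×10^7 cells in PBS at the right shoulder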
Protocol: A549 cells were cultured with a monolayer in vitro in RPMI1640 medium supplied with heat-inactivated fetal bovine serum with a volume ratio of 10%, and an incubator at 37° C. with the air containing CO2 with a proportion of 5%. The tumor cells were passaged with digestion by trypsin-EDTA twice a week. The cells in the exponential growth phase were collected, counted, and used for inoculation.
as §1

[6] = Body weight, survival and tolerance of mice bearing Calu-6 (Example 9); conditions: mean ± SE;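 further: nude mice bearing Calu-6 tumours, established by implanting 5.0×10^6 cells at the right shoulder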
Protocol: as §2

[7] = day 24 after inoculation, 30 mg/kg i.v. BIW×4W
[8] = day 24 after inoculation, 45 mg/kg i.v. QW×4W
[9] = day 28 after inoculation, 30 mg/kg i.v. BIW×4W
[10] = day 28 after inoculation, 45 mg/kg i.v. QW×4W
[11] = day 31 after inoculation, 30 mg/kg i.v. BIW×4W
[12] = day 31 after inoculation, 45 mg/kg i.v. QW×4W
[13] = day 35 after inoculation, 30 mg/kg i.v. BIW×4W
[14] = day 35 after inoculation, 45 mg/kg i.v. QW×4W
[15] = day 38 after inoculation, 30 mg/kg i.v. BIW×4W
[16] = day 38 after inoculation, 45 mg/kg i.v. QW×4W
[17] = day 42 after inoculation, 30 mg/kg i.v. BIW×4W
[18] = day 42 after inoculation, 45 mg/kg i.v. QW×4W
[19] = day 45 after inoculation, 30 mg/kg i.v. BIW×4W
[20] = day 45 after inoculation, 45 mg/kg i.v. QW×4W
[21] = day 49 after inoculation, 30 mg/kg i.v. BIW×4W
[22] = day 49 after inoculation, 45 mg/kg i.v. QW×4W
[23] = day 14 after inoculation, 30 mg/kg i.v. BIW×4W
[24] = day 14 after inoculation, 45 mg/kg i.v. QW×4W
[25] = day 17 after inoculation, 30 mg/kg i.v. BIW×4W
[26] = day 17 after inoculation, 45 mg/kg i.v. QW×4W
[27] = day 21 after inoculation, 30 mg/kg i.v. BIW×4W
[28] = day 21 after inoculation, 45 mg/kg i.v. QW×4W

Question: What does the source list for “monomethoxy polyethylene glycol (20K)-glutamic acid dipeptide-rapamycin conjugate [LPR-2]”?
Answer: TGD (to 1,000 mm^3) ([1]; 30 mg/kg i.v. BIW×3W): >9; T/C (%) RTV ([1]; 30 mg/kg i.v. BIW×3W): 22%; T/C (%) TW ([1]; 30 mg/kg i.v. BIW×3W): 23%; TGD (to 1,000 mm^3) ([1]; 45 mg/kg i.v. QW×3W): >9; T/C (%) RTV ([1]; 45 mg/kg i.v. QW×3W): 25%; T/C (%) TW ([1]; 45 mg/kg i.v. QW×3W): 25%; RTV ([1]; 30 mg/kg i.v. BIW×3W): 3.43 ± 0.32; Tumor weight ([1]; 30 mg/kg i.v. BIW×3W): 364 ± 54 mg; RTV ([1]; 45 mg/kg i.v. QW×3W): 3.86 ± 0.42; Tumor weight ([1]; 45 mg/kg i.v. QW×3W): 406 ± 60 mg; Tumor volume ([1]; day 8 after inoculation, 30 mg/kg i.v. BIW×3W): 143 ± 16 mm^3; Tumor volume ([1]; day 8 after inoculation, 45 mg/kg i.v. QW×3W): 143 ± 18 mm^3; Tumor volume ([1]; day 12 after inoculation, 30 mg/kg i.v. BIW×3W): 213 ± 40 mm^3; Tumor volume ([1]; day 12 after inoculation, 45 mg/kg i.v. QW×3W): 194 ± 33 mm^3; Tumor volume ([1]; day 15 after inoculation, 30 mg/kg i.v. BIW×3W): 208 ± 44 mm^3; Tumor volume ([1]; day 15 after inoculation, 45 mg/kg i.v. QW×3W): 260 ± 46 mm^3; Tumor volume ([1]; day 19 after inoculation, 30 mg/kg i.v. BIW×3W): 259 ± 50 mm^3; Tumor volume ([1]; day 19 after inoculation, 45 mg/kg i.v. QW×3W): 282 ± 46 mm^3; Tumor volume ([1]; day 22 after inoculation, 30 mg/kg i.v. BIW×3W): 343 ± 67 mm^3; Tumor volume ([1]; day 22 after inoculation, 45 mg/kg i.v. QW×3W): 346 ± 53 mm^3; Tumor volume ([1]; day 26 after inoculation, 30 mg/kg i.v. BIW×3W): 459 ± 70 mm^3; Tumor volume ([1]; day 26 after inoculation, 45 mg/kg i.v. QW×3W): 468 ± 57 mm^3; Tumor volume ([1]; day 29 after inoculation, 30 mg/kg i.v. BIW×3W, 30 mg/kg): 505 mm^3 and 505 ± 87 mm^3; Tumor volume ([1]; day 29 after inoculation, 45 mg/kg i.v. QW×3W, 45 mg/kg): 549 mm^3 and 549 ± 76 mm^3; Body weight of animal [2, 7]: 21.6 ± 0.5 g; Body weight of animal [2, 8]: 20.9 ± 0.3 g; Body weight of animal [2, 9]: 20.9 ± 0.4 g; Body weight of animal [2, 10]: 20.8 ± 0.1 g; Body weight of animal [2, 11]: 21.4 ± 0.4 g; Body weight of animal [2, 12]: 21.1 ± 0.2 g; Body weight of animal [2, 13]: 21.8 ± 0.4 g; Body weight of animal [2, 14]: 21.1 ± 0.3 g; Body weight of animal [2, 15]: 21.6 ± 0.4 g; Body weight of animal [2, 16]: 21.6 ± 0.3 g; Body weight of animal [2, 17]: 22.5 ± 0.3 g; Body weight of animal [2, 18]: 22.0 ± 0.3 g; Body weight of animal [2, 19]: 22.2 ± 0.3 g; Body weight of animal [2, 20]: 22.4 ± 0.3 g; Body weight of animal [2, 21]: 22.0 ± 0.3 g; Body weight of animal [2, 22]: 21.5 ± 0.3 g; Body weight of animal ([2]; day 52 after inoculation, 30 mg/kg i.v. BIW×4W): 22.0 ± 0.3 g; Body weight of animal ([2]; day 52 after inoculation, 45 mg/kg i.v. QW×4W): 22.1 ± 0.3 g; Body weight of animal ([3]; day 16 after inoculation, 30 mg/kg i.v. BIW×4W): 20.2 ± 0.6 g; Body weight of animal ([3]; day 16 after inoculation, 45 mg/kg i.v. QW×4W): 19.2 ± 0.5 g; Body weight of animal ([3]; day 20 after inoculation, 30 mg/kg i.v. BIW×4W): 19.7 ± 0.4 g; Body weight of animal ([3]; day 20 after inoculation, 45 mg/kg i.v. QW×4W): 18.6 ± 0.4 g; Body weight of animal ([3]; day 23 after inoculation, 30 mg/kg i.v. BIW×4W): 20.4 ± 0.5 g; Body weight of animal ([3]; day 23 after inoculation, 45 mg/kg i.v. QW×4W): 18.6 ± 0.4 g; Body weight of animal ([3]; day 27 after inoculation, 30 mg/kg i.v. BIW×4W): 19.7 ± 0.5 g; Body weight of animal ([3]; day 27 after inoculation, 45 mg/kg i.v. QW×4W): 17.9 ± 0.4 g; Body weight of animal ([3]; day 30 after inoculation, 30 mg/kg i.v. BIW×4W): 19.1 ± 0.5 g; Body weight of animal ([3]; day 30 after inoculation, 45 mg/kg i.v. QW×4W): 18.2 ± 0.4 g; Body weight of animal ([3]; day 34 after inoculation, 30 mg/kg i.v. BIW×4W): 19.1 ± 0.6 g; Body weight of animal ([3]; day 34 after inoculation, 45 mg/kg i.v. QW×4W): 18.2 ± 0.4 g; Body weight of animal ([3]; day 37 after inoculation, 30 mg/kg i.v. BIW×4W): 18.6 ± 0.4 g; Body weight of animal ([3]; day 37 after inoculation, 45 mg/kg i.v. QW×4W): 18.0 ± 0.3 g; Body weight of animal ([3]; day 41 after inoculation, 30 mg/kg i.v. BIW×4W): 17.9 ± 0.3 g; Body weight of animal ([3]; day 41 after inoculation, 45 mg/kg i.v. QW×4W): 16.7 ± 0.5 g; Body weight of animal ([3]; day 44 after inoculation, 30 mg/kg i.v. BIW×4W): 17.3 ± 0.3 g; Body weight of animal ([3]; day 44 after inoculation, 45 mg/kg i.v. QW×4W): 17.1 ± 0.4 g; TGD (to 1,000 mm^3) ([4]; 30 mg/kg i.v. BIW×4W): >8; T/C (%) RTV ([4]; 30 mg/kg i.v. BIW×4W): 31%; T/C (%) TW ([4]; 30 mg/kg i.v. BIW×4W): 28%; TGD (to 1,000 mm^3) ([4]; 45 mg/kg i.v. QW×4W): >8; T/C (%) RTV ([4]; 45 mg/kg i.v. QW×4W): 38%; T/C (%) TW ([4]; 45 mg/kg i.v. QW×4W): 37%; RTV ([4]; 30 mg/kg i.v. BIW×4W): 4.39 ± 0.59; Tumor weight ([4]; 30 mg/kg i.v. BIW×4W): 449 ± 89 mg; RTV ([4]; 45 mg/kg i.v. QW×4W): 5.41 ± 0.51; Tumor weight ([4]; 45 mg/kg i.v. QW×4W): 602 ± 83 mg; Tumor volume [4, 23]: 139 ± 18 mm^3; Tumor volume [4, 24]: 137 ± 22 mm^3; Tumor volume [4, 25]: 160 ± 25 mm^3; Tumor volume [4, 26]: 152 ± 25 mm^3; Tumor volume [4, 27]: 201 ± 40 mm^3; Tumor volume [4, 28]: 204 ± 38 mm^3; Tumor volume [4, 7]: 241 ± 50 mm^3; Tumor volume [4, 8]: 245 ± 40 mm^3; Tumor volume [4, 9]: 274 ± 57 mm^3; Tumor volume [4, 10]: 293 ± 44 mm^3; Tumor volume [4, 11]: 335 ± 76 mm^3; Tumor volume [4, 12]: 323 ± 45 mm^3; Tumor volume [4, 13]: 422 ± 108 mm^3; Tumor volume [4, 14]: 436 ± 74 mm^3; Tumor volume [4, 15]: 504 ± 119 mm^3; Tumor volume [4, 16]: 518 ± 87 mm^3; Tumor volume ([4]; day 42 after inoculation, 30 mg/kg i.v. BIW×4W, 30 mg/kg): 627 ± 145 mm^3; Tumor volume ([4]; day 42 after inoculation, 45 mg/kg i.v. QW×4W, 45 mg/kg): 720 ± 106 mm^3; TGD (to 1,000 mm^3) ([5]; 30 mg/kg i.v. BIW×4W): >7; T/C (%) RTV ([5]; 30 mg/kg i.v. BIW×4W): 10%; T/C (%) TW ([5]; 30 mg/kg i.v. BIW×4W): 8%; TGD (to 1,000 mm^3) ([5]; 45 mg/kg i.v. QW×4W): >7; T/C (%) RTV ([5]; 45 mg/kg i.v. QW×4W): 11%; T/C (%) TW ([5]; 45 mg/kg i.v. QW×4W): 10%; RTV ([5]; 30 mg/kg i.v. BIW×4W): 0.94 ± 0.11; Tumor weight ([5]; 30 mg/kg i.v. BIW×4W): 102 ± 15 mg; RTV ([5]; 45 mg/kg i.v. QW×4W): 1.05 ± 0.11; Tumor weight ([5]; 45 mg/kg i.v. QW×4W): 129 ± 20 mg; Tumor volume [5, 7]: 140 ± 11 mm^3; Tumor volume [5, 8]: 139 ± 11 mm^3; Tumor volume [5, 9]: 131 ± 8 mm^3; Tumor volume [5, 10]: 115 ± 8 mm^3; Tumor volume [5, 11]: 134 ± 11 mm^3; Tumor volume [5, 12]: 126 ± 10 mm^3; Tumor volume [5, 13]: 124 ± 15 mm^3; Tumor volume [5, 14]: 122 ± 13 mm^3; Tumor volume [5, 15]: 131 ± 13 mm^3; Tumor volume [5, 16]: 120 ± 13 mm^3; Tumor volume [5, 17]: 122 ± 8 mm^3; Tumor volume [5, 18]: 124 ± 9 mm^3; Tumor volume [5, 19]: 131 ± 9 mm^3; Tumor volume [5, 20]: 140 ± 11 mm^3; Tumor volume [5, 21]: 128 ± 9 mm^3; Tumor volume [5, 22]: 138 ± 14 mm^3; Tumor volume ([5]; day 52 after inoculation, 30 mg/kg i.v. BIW×4W, 30 mg/kg): 127 mm^3 and 127 ± 6 mm^3; Tumor volume ([5]; day 52 after inoculation, 45 mg/kg i.v. QW×4W, 45 mg/kg): 145 mm^3 and 145 ± 14 mm^3; Body weight of animal [6, 23]: 20.9 ± 0.4 g; Body weight of animal [6, 24]: 20.6 ± 0.4 g; Body weight of animal [6, 25]: 21.0 ± 0.4 g; Body weight of animal [6, 26]: 20.0 ± 0.4 g; Body weight of animal [6, 27]: 21.7 ± 0.4 g; Body weight of animal [6, 28]: 19.9 ± 0.6 g; Body weight of animal [6, 7]: 21.6 ± 0.3 g; Body weight of animal [6, 8]: 20.9 ± 0.5 g; Body weight of animal [6, 9]: 22.4 ± 0.4 g; Body weight of animal [6, 10]: 21.3 ± 0.6 g; Body weight of animal [6, 11]: 21.6 ± 0.4 g; Body weight of animal [6, 12]: 20.7 ± 0.6 g; Body weight of animal [6, 13]: 22.2 ± 0.4 g; Body weight of animal [6, 14]: 21.8 ± 0.6 g; Body weight of animal [6, 15]: 22.3 ± 0.4 g; Body weight of animal [6, 17]: 22.4 ± 0.3 g; Body weight of animal [6, 18]: 21.5 ± 0.5 g
